Results from ChEMBL document CHEMBL3046105, “Synthesis and antihyperlipidemic efficiency of berberine-based HMG-CoA reductase inhibitor” (Med Chem Res, 2012).
Activity calls are given as the source filed them. The rule behind the calls is not given here.

Legend:
Oryctolagus cuniculus [1] = test: Reduction in hepatic steatosis and appearance of inflammatory cell in high fat-high cholesterol fed New Zealand Oryctolagus cuniculus (rabbit) at 5 mg/kg, po for 2 months by hematoxylin-eosin staining analysis; assay type: functional, organism-based; parameters: dose 5 mg/kg
Oryctolagus cuniculus [2] = test: Toxicity in hyperlipidemic New Zealand Oryctolagus cuniculus (rabbit) assessed as alanine aminotransferase level at 10 mg/kg/day, po for 2 months (reference value: 92.14 +/- 14.3 U/l); assay type: organism-based; parameters: route oral; conditions: in vivo
Oryctolagus cuniculus [3] = test: Antihyperlipidemic activity in high fat-high cholesterol fed New Zealand Oryctolagus cuniculus (rabbit) assessed as high-density lipoprotein-cholesterol level in blood at 10 mg/kg, po for 40 days (reference value: 0.69 +/- 0.02 mmol/l); assay type: functional
Oryctolagus cuniculus [4] = test: Antihyperlipidemic activity in high fat-high cholesterol fed New Zealand Oryctolagus cuniculus (rabbit) assessed as total cholesterol level in blood at 5 mg/kg, po for 40 days (reference value: 8.74 +/- 0.53 mmol/l); assay type: functional
[5] = target: T1, 3-hydroxy-3-methylglutaryl-coenzyme A reductase (Mus musculus) (UniProt Q01237); test: Inhibition of HMGR isolated from Mus musculus (mouse) liver assessed as change in NADPH at 8 umol/l by HPLC analysis
T1 sequence (whole entry): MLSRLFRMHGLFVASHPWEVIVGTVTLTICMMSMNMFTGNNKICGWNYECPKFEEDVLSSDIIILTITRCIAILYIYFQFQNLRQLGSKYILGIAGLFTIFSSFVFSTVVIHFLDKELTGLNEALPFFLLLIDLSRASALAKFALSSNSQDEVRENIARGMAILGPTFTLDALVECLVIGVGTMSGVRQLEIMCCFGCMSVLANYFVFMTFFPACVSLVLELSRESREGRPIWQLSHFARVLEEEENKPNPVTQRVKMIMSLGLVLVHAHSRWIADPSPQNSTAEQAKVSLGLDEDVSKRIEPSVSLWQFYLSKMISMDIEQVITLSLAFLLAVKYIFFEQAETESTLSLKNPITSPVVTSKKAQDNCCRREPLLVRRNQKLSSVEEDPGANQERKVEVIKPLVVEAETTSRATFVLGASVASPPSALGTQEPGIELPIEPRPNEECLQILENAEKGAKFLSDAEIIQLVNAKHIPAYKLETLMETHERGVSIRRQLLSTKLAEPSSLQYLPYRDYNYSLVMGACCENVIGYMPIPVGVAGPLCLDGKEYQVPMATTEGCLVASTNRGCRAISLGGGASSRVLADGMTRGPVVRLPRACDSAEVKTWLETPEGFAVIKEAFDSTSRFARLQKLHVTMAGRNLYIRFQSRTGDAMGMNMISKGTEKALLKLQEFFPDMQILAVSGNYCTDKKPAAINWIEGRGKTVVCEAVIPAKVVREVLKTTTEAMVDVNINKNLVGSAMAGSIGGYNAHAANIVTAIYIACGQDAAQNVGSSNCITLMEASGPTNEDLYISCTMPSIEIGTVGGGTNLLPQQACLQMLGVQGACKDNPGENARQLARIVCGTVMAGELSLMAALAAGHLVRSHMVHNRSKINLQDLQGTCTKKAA

Oryctolagus cuniculus [6] = test: Toxicity in hyperlipidemic New Zealand Oryctolagus cuniculus (rabbit) assessed as total bilirubin level at 15 mg/kg/day, po for 2 months (reference value: 28.45 +/- 11.55 Umol/l); assay type: organism-based; parameters: route oral; conditions: in vivo
Oryctolagus cuniculus [7] = test: Toxicity in high fat-high cholesterol fed New Zealand Oryctolagus cuniculus (rabbit) assessed as mortality at 15 mg/kg, po for 40 days; assay type: organism-based; parameters: dose 15 mg/kg, route oral; conditions: in vivo, 960 h
Oryctolagus cuniculus [8] = test: Antihyperlipidemic activity in high fat-high cholesterol fed New Zealand Oryctolagus cuniculus (rabbit) assessed as high-density lipoprotein-cholesterol level in blood at 15 mg/kg, po for 40 days (reference value: 0.69 +/- 0.02 mmol/l); assay type: functional
Oryctolagus cuniculus [9] = test: Toxicity in hyperlipidemic New Zealand Oryctolagus cuniculus (rabbit) assessed as alanine aminotransferase level at 5 mg/kg/day, po for 2 months (reference value: 92.14 +/- 14.3 U/l); assay type: organism-based; parameters: route oral; conditions: in vivo
Oryctolagus cuniculus [10] = test: Toxicity in hyperlipidemic New Zealand Oryctolagus cuniculus (rabbit) assessed as effect on kidney coefficient at 5 to 15 mg/kg/day, po for 2 months; assay type: organism-based; parameters: route oral; conditions: in vivo
Oryctolagus cuniculus [11] = test: Antihyperlipidemic activity in high fat-high cholesterol fed New Zealand Oryctolagus cuniculus (rabbit) assessed as low-density lipoprotein-cholesterol level in blood at 15 mg/kg, po for 40 days (reference value: 3.47 +/- 0.44 mmol/l); assay type: functional
Oryctolagus cuniculus [12] = test: Toxicity in hyperlipidemic New Zealand Oryctolagus cuniculus (rabbit) assessed as morbidity at 5 to 15 mg/kg/day, po for 2 months; assay type: organism-based; parameters: route oral; conditions: in vivo
Oryctolagus cuniculus [13] = test: Toxicity in hyperlipidemic New Zealand Oryctolagus cuniculus (rabbit) assessed as alanine aminotransferase level at 15 mg/kg/day, po for 2 months (reference value: 92.14 +/- 14.3 U/l); assay type: organism-based; parameters: route oral; conditions: in vivo
Oryctolagus cuniculus [14] = test: Antihyperlipidemic activity in high fat-high cholesterol fed New Zealand Oryctolagus cuniculus (rabbit) assessed as total cholesterol level in blood at 15 mg/kg, po for 40 days (reference value: 8.89 +/- 0.53 mmol/l); assay type: functional
Oryctolagus cuniculus [15] = test: Toxicity in hyperlipidemic New Zealand Oryctolagus cuniculus (rabbit) assessed as histopathological examination of heart at 5 to 15 mg/kg/day, po for 2 months by hematoxylin-eosin staining analysis; assay type: organism-based; parameters: route oral; conditions: in vivo
[16] = Toxicity in Mus musculus Kunming (mouse); assay type: organism-based; conditions: in vivo
Oryctolagus cuniculus [17] = test: Toxicity in hyperlipidemic New Zealand Oryctolagus cuniculus (rabbit) assessed as effect on heart coefficient at 5 to 15 mg/kg/day, po for 2 months; assay type: organism-based; parameters: route oral; conditions: in vivo
Oryctolagus cuniculus [18] = test: Antihyperlipidemic activity in high fat-high cholesterol fed New Zealand Oryctolagus cuniculus (rabbit) assessed as total cholesterol level in blood at 10 mg/kg, po for 40 days (reference value: 8.74 +/- 0.53 mmol/l); assay type: functional
Oryctolagus cuniculus [19] = test: Antihyperlipidemic activity in high fat-high cholesterol fed New Zealand Oryctolagus cuniculus (rabbit) assessed as triglyceride level in blood at 5 mg/kg, po for 40 days (reference value: 2.07 +/- 0.33 mmol/l); assay type: functional
Oryctolagus cuniculus [20] = test: Toxicity in hyperlipidemic New Zealand Oryctolagus cuniculus (rabbit) assessed as histopathological examination of kidney at 5 to 15 mg/kg/day, po for 2 months by hematoxylin-eosin staining analysis; assay type: organism-based; parameters: route oral; conditions: in vivo
Oryctolagus cuniculus [21] = test: Toxicity in hyperlipidemic New Zealand Oryctolagus cuniculus (rabbit) assessed as total bilirubin level at 10 mg/kg/day, po for 2 months (reference value: 28.45 +/- 11.55 Umol/l); assay type: organism-based; parameters: route oral; conditions: in vivo
Oryctolagus cuniculus [22] = test: Toxicity in hyperlipidemic New Zealand Oryctolagus cuniculus (rabbit) assessed as effect on spleen coefficient at 5 to 15 mg/kg/day, po for 2 months; assay type: organism-based; parameters: route oral; conditions: in vivo
Oryctolagus cuniculus [23] = test: Toxicity in hyperlipidemic New Zealand Oryctolagus cuniculus (rabbit) assessed ashistopathological examination of pancreas at 5 to 15 mg/kg/day, po for 2 months by hematoxylin-eosin staining analysis; assay type: organism-based; parameters: route oral; conditions: in vivo
Oryctolagus cuniculus [24] = test: Toxicity in hyperlipidemic New Zealand Oryctolagus cuniculus (rabbit) assessed as total bilirubin level at 5 mg/kg/day, po for 2 months (reference value: 28.45 +/- 11.55 Umol/l); assay type: organism-based; parameters: route oral; conditions: in vivo

**Q.** Which inhibition (Oryctolagus cuniculus [1]) does the source give for `CCCCCCCCCCCCCCCCc1c2c(OC)c(OC)ccc2cc2[n+]1CCc1cc3c(cc1-2)OCO3.[Cl-]` [8-HEXADECYL-BERBERINE CHLORIDE] here?
**A.** Its inhibition is “Active”.

**Q.** And the Activity (Oryctolagus cuniculus [2])?
**A.** The Activity was 71.53 U/L.

**Q.** What about the Activity (Oryctolagus cuniculus [3]) of the same compound?
**A.** Its Activity is 720000 nmol/L.

**Q.** And the Activity (Oryctolagus cuniculus [4])?
**A.** Its Activity is 6.92e+06 nmol/L.

**Q.** What about the inhibition [5] of the same compound?
**A.** The inhibition was 42.7%.

**Q.** And the Activity (Oryctolagus cuniculus [6])?
**A.** The Activity was 12.8 µmol/L.

**Q.** And the Activity (Oryctolagus cuniculus [7])?
**A.** The Activity was “Non-toxic”.

**Q.** And the Activity (Oryctolagus cuniculus [8])?
**A.** The Activity was 750000 nmol/L.

**Q.** What about the Activity (Oryctolagus cuniculus [9]) of the same compound?
**A.** Its Activity is 82.36 U/L.

**Q.** What about the Activity (Oryctolagus cuniculus [10]) of the same compound?
**A.** Its Activity is “Non-toxic”.

**Q.** And the Activity (Oryctolagus cuniculus [11])?
**A.** Its Activity is 2.05e+06 nmol/L.

**Q.** And the Activity (Oryctolagus cuniculus [12])?
**A.** Its Activity is “Non-toxic”.

**Q.** What about the Activity (Oryctolagus cuniculus [13]) of the same compound?
**A.** Its Activity is 64.63 U/L.

**Q.** And the Activity (Oryctolagus cuniculus [14])?
**A.** Its Activity is 2.22e+06 nmol/L.

**Q.** And the Activity (Oryctolagus cuniculus [15])?
**A.** The Activity was “Non-toxic”.

**Q.** And the LD50 [16]?
**A.** The LD50 was over 1000 mg/kg.

**Q.** What about the Activity (Oryctolagus cuniculus [17]) of the same compound?
**A.** The Activity was “Non-toxic”.

**Q.** And the Activity (Oryctolagus cuniculus [18])?
**A.** Its Activity is 4.26e+06 nmol/L.

**Q.** And the Activity (Oryctolagus cuniculus [19])?
**A.** Its Activity is 1.95e+06 nmol/L.

**Q.** And the Activity (Oryctolagus cuniculus [20])?
**A.** Its Activity is “Non-toxic”.

**Q.** And the Activity (Oryctolagus cuniculus [21])?
**A.** The Activity was 13.3 µmol/L.

**Q.** What about the Activity (Oryctolagus cuniculus [22]) of the same compound?
**A.** The Activity was “Non-toxic”.

**Q.** What about the Activity (Oryctolagus cuniculus [23]) of the same compound?
**A.** The Activity was “Non-toxic”.

**Q.** And the Activity (Oryctolagus cuniculus [24])?
**A.** Its Activity is 15.6 µmol/L.
